# How the values were obtained:
# UrdA′ (two-domain UrdA) [1] = biological target: T1, UrdA′ (two-domain UrdA) (Shewanella oneidensis, UniProt Q8CVD0); assay: X-ray structure ([…] Å); activity inhibition; conditions: ADP in the FAD-binding site; no urocanate bound, glycerol in substrate site
# T1 construct: clamp and FAD domains, residues 130-582, C-terminal 6xHis kept, N-terminal FMN domain absent; E. coli TUNER(DE3) (mutants BL21(DE3)); mostly monomer
# UrdA′ (two-domain UrdA) [2] = biological target: T1, UrdA′ (two-domain UrdA); assay: X-ray structure ([…] Å); type: binding; conditions: no substrate bound; sulfate in active site; FAD also in 6T87 and 6T88
# T1 sequence (Q8CVD0 130-582): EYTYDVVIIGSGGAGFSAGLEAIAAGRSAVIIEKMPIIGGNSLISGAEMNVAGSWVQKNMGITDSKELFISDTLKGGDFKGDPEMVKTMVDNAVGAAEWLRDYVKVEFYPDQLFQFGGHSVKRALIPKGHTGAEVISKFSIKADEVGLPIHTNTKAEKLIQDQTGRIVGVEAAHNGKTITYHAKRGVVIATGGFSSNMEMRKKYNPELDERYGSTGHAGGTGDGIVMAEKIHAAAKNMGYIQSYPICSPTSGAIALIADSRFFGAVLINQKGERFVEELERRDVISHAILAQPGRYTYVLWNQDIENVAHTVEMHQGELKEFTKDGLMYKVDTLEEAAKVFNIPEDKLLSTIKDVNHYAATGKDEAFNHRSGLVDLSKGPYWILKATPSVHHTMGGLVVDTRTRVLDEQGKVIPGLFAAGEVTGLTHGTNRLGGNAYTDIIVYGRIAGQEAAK
Compound,X-ray structure (1.1 Å); activity inhibition (UrdA′ (two-domain UrdA) [1]),X-ray structure (2.56 Å) (UrdA′ (two-domain UrdA) [2])
Nc1ncnc2c1ncn2[C@@H]1O[C@H](COP(=O)(O)OP(=O)(O)O)[C@@H](O)[C@H]1O [ADP],supported by the ADP-induced inhibition of UrdA′ activity,–
Cc1cc2nc3c(=O)[nH]c(=O)nc-3n(C[C@H](O)[C@H](O)[C@H](O)COP(=O)(O)OP(=O)(O)OC[C@H]3O[C@@H](n4cnc5c(N)ncnc54)[C@H](O)[C@@H]3O)c2cc1C [FAD],–,"6T86 for apo-FAD, 6T87 for uro-FAD, and 6T88 for imp-FAD"
